Measurements as given in patent US7871995B2, “Drug delivery system comprising a tetrahydroxylated estrogen for use in hormonal contraception” (Pantarhei Bioscience B.V., priority 2001, dated 2011).
Where two headings read alike, the source gives them in different places.

Columns and labels:
uterus = settings: continuous administration from a subcutaneous depot; Martucci et al., 1977; cited from earlier work
[1] = Elimination half-life after single subcutaneous dose, plasma by HPLC-MS/MS; format: in vivo, rat; settings: single sc dose, female Sprague Dawley rats, sampling 0.5-24 hours
Description: To determine the elimination half-life of estetrol (E4) after subcutaneous administration (sc), single dose studies were performed in female Sprague Dawley rats followed by frequent blood sampling over a 24 hours interval.
Female Sprague Dawley rats were equipped with a permanent silatic heart catheter, as described by Kuipers et al. (1985,Gastroenterology, 88, 403-411). Rats were allowed to recover from surgery for 5 days and were than administered 0.05, 0.5,or 5 mg/kg E4 in 0.5 ml arachidis oil. E4 was injected in the neck area using a 1 ml syringe and 20 g needle. Blood samples were subsequently collected via the heart catheter in heparinized tubes at 0.5, 1, 2, 4, 8 and 24 hours. Erythrocytes were removed by centrifugation at 5000×g for 10 minutes at 4° C. and blood plasma was stored at −20° C. […] With each sample batch, a calibration curve with 6 calibrators was recorded. The calibration curve was calculated using linear regression (correlation coefficient>0.98), which permitted quantitation of plasma concentrations. […]
Plasma E4 concentration data were analysed with “WinNonLin, edition 3.1” and involved pharmacokinetic parameters for Cmax, AUC0-24 and half-life.

[2] = test system: ovariectomized adult rats (vaginal epithelial cornification); experiment: Vaginal cornification bioassay in ovariectomized rats, subcutaneous dosing; format: in vivo, rat
Description: Adult intact female CD rats were ovariectomized to induce estrogen deficiency. […] Castrate vaginal smears are indicative that complete ovariectomy was achieved. Treatment commenced following completion of the 7 days of smearing (day 0=first day of dosing). Animals were dosed, once daily for 7 consecutive days. Daily vaginal lavages continued to be obtained for 7 days after dosing was initiated in order to detect vaginal cornification, as an indication of an estrogenic response. A drop of vaginal washings was placed on a glass slide and examined by light microscopy to detect the presence or absence of cornified epithelial cells. Vaginal lavages were obtained prior to dosing on days 0-6 and prior to necropsy on day 7. The vaginal cornification bioassay was performed in order to determine the estrogenic profile of E4 when given subcutaneously (sc) to ovariectomized adult rats. E2 was used as a positive control. […] The occurrence of vaginal cornification, indicative of an estrogenic response, is an “all or none” response. Data are, therefore, expressed as the number of rats showing a vaginal estrogenic response over the number of rats (ratio) treated.

immature rat uterus = settings: subcutaneous, Holinka et al., cited from earlier work
[3] = tritium labeled, intravenous, two adult women; cited from earlier work
[4] = test system: human breast cancer cells (MCF-7); settings: MCF-7, long term tissue culture; cited from earlier work
[5] = target: T1, human sex Hormone Binding Globulin (SHBG) (Homo sapiens, UniProt P04278); experiment: Competitive steroid-binding assay for human SHBG; settings: for relative binding affinity for human SHBG: rising in the order ethinylestradiol, 17β-estradiol, testosterone, 5α-dihydrotestosterone
T1 construct: Human SHBG was purified from transgenic mouse serum; made in house; host or cells: transgenic mouse (serum)
T1 sequence (P04278 30-402): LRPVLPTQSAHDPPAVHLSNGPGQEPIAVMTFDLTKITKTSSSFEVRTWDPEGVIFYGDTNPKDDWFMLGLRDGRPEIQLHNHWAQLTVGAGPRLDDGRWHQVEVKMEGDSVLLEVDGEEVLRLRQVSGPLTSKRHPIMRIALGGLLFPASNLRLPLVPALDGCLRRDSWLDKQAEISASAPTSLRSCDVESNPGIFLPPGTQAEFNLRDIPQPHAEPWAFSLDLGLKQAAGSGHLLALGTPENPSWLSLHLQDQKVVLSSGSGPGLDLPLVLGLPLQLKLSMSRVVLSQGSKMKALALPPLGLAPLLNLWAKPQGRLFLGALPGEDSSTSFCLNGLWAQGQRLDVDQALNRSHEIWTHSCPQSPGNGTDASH
Description: Human SHBG was treated for 30 min at room temperature with a dextran-coated charcoal (DCC) suspension in phosphate buffered saline (PBS) to remove any steroid ligand. After centrifugation (2,000×g for 10 min) to sediment the DCC, the supernatant containing the human SHBG was diluted in PBS to a concentration of 1 nM based on its steroid binding capacity.
The average amounts of [^3H]labeled ligands bound to SHBG at each concentration of competitor (B) were expressed as a percentage of the average amounts of [^3H]labeled ligands bound to SHBG in the absence of competitor (B0), and were. plotted against the concentration of competitor in each assay tube.

[6] = test system: four-day cyclic rats (ovulation); experiment: Antiovulatory bioassay in four-day cyclic rats, subcutaneous dosing; format: in vivo, rat; settings: for inhibition of ovulation: EE 1.0-100 μg/kg, E2 and E4 0.1-3.0 mg/kg; for complete ovulation inhibition: twice daily sc, higher dosages
Description: Vaginal smears from female rats are obtained daily for two weeks to select four-day cycling rats. Only four-day cyclic rats are to be used for the antiovulatory bioassay. […] One day after the final dose (day 5), rats are euthanized by CO2 asphyxiation at 1 pm, and the number of ova per oviduct is determined. Group means are subsequently calculated for the number of ova per ovulated rat (both oviducts). The ratio of rats ovulating for each treatment group is compared to the ratio for the vehicle-treated rats.

C[C@]12CC[C@@H]3c4ccc(O)cc4CC[C@H]3[C@@H]1[C@@H](O)[C@@H](O)[C@@H]2O [estetrol, 1,3,5 (10)-estratrien-3, 15α,16α,17β-tetrol]
uterotrophic activity (uterus): very weak uterotrophic activity
plasma levels of unconjugated E4 over a 24 hour interval [1]: detection of bioactive levels of unconjugated E4 at all time points
Number of Rats Exhibiting Estrogenic Response/Number of Rats Treated ([2]; 1.0 mg/kg/day sc, Day 7, listed as E4): all rats showed a vaginal estrogenic response
Number of Rats Exhibiting Estrogenic Response/Number of Rats Treated ([2]; 3.0 mg/kg/day sc, Day 7, listed as E4): all rats showed a vaginal estrogenic response
onset of vaginal epithelial cornification ([2]; sc 0.1, 0.3, 1.0 and 3.0 mg/kg/day): dose-dependent
day of treatment on which vaginal epithelial cornification started ([2]; sc 0.1, 0.3, 1.0 and 3.0 mg/kg/day, same day as observed for E2): 2 days
uterotrophic activity (immature rat uterus; 1979): very weak uterotrophic activity
uterotrophic activity (immature rat uterus; 1980): very weak uterotrophic activity
metabolism [3]: virtually no metabolism except for conjugation took place
agonistic potency in in vitro cell proliferation, of the magnitude observed for 17β-estradiol [4]: 2%
binding to human SHBG (competitive displacement) ([5]; [3H]DHT as labeled ligand): does not bind at all
binding to human SHBG (competitive displacement) ([5]; [3H]estradiol as labeled ligand): does not bind at all
binding to SHBG compared with the other estrogens tested ([5]; compared with ethinylestradiol and 17β-estradiol): negligible
antiovulatory activity compared with E2 ([6]; twice daily sc for 4 days): equal potency or even more potency in inhibiting ovulation than E2
inhibition of ovulation ([6]; twice daily sc for 4 days): dose-dependently inhibits ovulation
complete ovulation inhibition [6]: complete ovulation inhibition is achieved

C[C@]12CC[C@H]3[C@@H](CCC4=CC(=O)CC[C@@]43C)[C@@H]1CC[C@@H]2O [testosterone, reference compound]
relative binding affinity for human SHBG [5]: show an increased relative binding affinity for human SHBG

C[C@]12CC[C@@H]3c4ccc(O)cc4CC[C@H]3[C@@H]1CC[C@@H]2O [17β-estradiol]
Number of Rats Exhibiting Estrogenic Response/Number of Rats Treated ([2]; 0.05 mg/kg/day sc, Day 0): 0/8
Number of Rats Exhibiting Estrogenic Response/Number of Rats Treated ([2]; 0.05 mg/kg/day sc, Day 1): 0/8
Number of Rats Exhibiting Estrogenic Response/Number of Rats Treated ([2]; 0.05 mg/kg/day sc, Day 2): 8/8
Number of Rats Exhibiting Estrogenic Response/Number of Rats Treated ([2]; 0.05 mg/kg/day sc, Day 3): 8/8
Number of Rats Exhibiting Estrogenic Response/Number of Rats Treated ([2]; 0.05 mg/kg/day sc, Day 4): 8/8
Number of Rats Exhibiting Estrogenic Response/Number of Rats Treated ([2]; 0.05 mg/kg/day sc, Day 5): 8/8
Number of Rats Exhibiting Estrogenic Response/Number of Rats Treated ([2]; 0.05 mg/kg/day sc, Day 6): 8/8
Number of Rats Exhibiting Estrogenic Response/Number of Rats Treated ([2]; 0.05 mg/kg/day sc, Day 7): 8/8
inhibition of ovulation ([6]; twice daily sc for 4 days): dose-dependently inhibits ovulation
complete ovulation inhibition [6]: complete ovulation inhibition is achieved

C[C@]12CCC(=O)C[C@@H]1CC[C@@H]1[C@@H]2CC[C@]2(C)[C@@H](O)CC[C@@H]12 [5α-dihydrotestosterone, reference compound]
relative binding affinity for human SHBG [5]: show an increased relative binding affinity for human SHBG
